Results reported in patent EP1158000A1, “Crystal structure data of cystalysin and use thereof for the design and preparation of inhibitor molecules” (priority 2000, dated 2001).
Read-outs that look alike come from different tables or passages of the source.

Legend:
cystalysin [1] = assay: Spectral measurement of cystalysin after treatment with AVG; type: biochemical, Treponema denticola; settings: chromophore at 336 nm formed simultaneously, spectra at 20°C in 100 mM phosphate buffer
Protocol: PLP-dependent enzymes catalyzing β-elimination reactions are known to be inhibited by a number of β,γ-unsaturated amino acids like the natural toxins rhizobitoxin (Owens et al., 1968) and L-aminoethoxyvinylglycine (AVG) (Pruess et al., 1974), that act as so-called slow-binding inhibitors (Morrison and Walsh, 1988). […] Spectral and fluorescence measurements lead to similar observations for cystalysin after incubation with AVG (Figure 4A). […] The inhibitor is mainly bound by hydrogen bonds to its carboxylate oxygens which originate from Ala39, Asn 175 and Arg369 (Figure 4C). […] Hydrophobic interactions are with Tyr64* and Phe273* which are in van-der-Waals contact to the carbon atoms CFI, CEI and CGI. Contrary for CBL, the amino-tail of the inhibitor is not bound to Tyr123, but stretched out in opposite direction towards a large hydrophobic cavity formed by the residues Leu17, Val38, Typ64* and Phe273* that is absent in CBL. […]
(A) The spectra of uncomplexed cystalysin and cystalysin after treatment with AVG, recorded at 20°C in 100 mM phosphate buffer. (B) Final 2Fo-Fc electron density of the PLP-AVG complex (yellow) and the intermediate protein vicinity (color-coding by atom type), contoured at 1.2 σ and calculated at 2.5 Å resolution. […]

cystalysin [2] = assay: Loss of cystalysin enzyme activity through AVG; type: biochemical, Treponema denticola; settings: dead end ketimine PLP derivative formed with AVG
Protocol: Overall, the PLP cofactor remains fixed in position with only the pyridine ring rotated slightly (≤ 10°), while no major structural changes regarding domain movement have been observed. These findings are contradicting an open/closed mechanism upon substrate binding, since the cystalysin-AVG structure should resemble the physiological enzyme-substrate complex. Due to the similarities in inhibition pattern and spectral changes, AVG should act on cystalysin in a similar manner as reported for CBL (Clausen et al., 1997). After transaldimination, a proton transfer from C^α to C4' is mediated by the deprotonated ε-amino group of the released Lys238, instead of protonating the leaving group. The resulting "dead end" ketimine PLP derivative is responsible for the observed 336 nm-chromophore and the total loss of enzyme activity. The inability of cystalysin to catalyze a transamination of this ketimine also accounts for the high stability of the final intermediate.

[3] = biological target: cystathionine β-lyase (CBL) (Escherichia coli, UniProt P06721); settings: upon treatment with AVG; cited from earlier work
Chain of cystathionine β-lyase (CBL) (P06721 2-395): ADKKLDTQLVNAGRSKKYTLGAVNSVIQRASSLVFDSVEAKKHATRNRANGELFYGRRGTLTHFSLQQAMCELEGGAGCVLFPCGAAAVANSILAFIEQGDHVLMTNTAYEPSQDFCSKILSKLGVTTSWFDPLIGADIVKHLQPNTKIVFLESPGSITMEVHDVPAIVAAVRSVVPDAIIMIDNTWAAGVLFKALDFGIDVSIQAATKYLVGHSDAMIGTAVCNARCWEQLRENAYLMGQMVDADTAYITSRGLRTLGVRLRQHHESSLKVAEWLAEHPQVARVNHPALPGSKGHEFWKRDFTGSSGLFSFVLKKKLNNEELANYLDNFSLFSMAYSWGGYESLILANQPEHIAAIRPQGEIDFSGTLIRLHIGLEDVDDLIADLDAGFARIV

[4] = biological target: T1, PLP-dependent β-cystathionase (osteotoxin) (Bordetella avium, UniProt Q07703); settings: cited from earlier work
T1 sequence (Q07703 2-396 limits assumed): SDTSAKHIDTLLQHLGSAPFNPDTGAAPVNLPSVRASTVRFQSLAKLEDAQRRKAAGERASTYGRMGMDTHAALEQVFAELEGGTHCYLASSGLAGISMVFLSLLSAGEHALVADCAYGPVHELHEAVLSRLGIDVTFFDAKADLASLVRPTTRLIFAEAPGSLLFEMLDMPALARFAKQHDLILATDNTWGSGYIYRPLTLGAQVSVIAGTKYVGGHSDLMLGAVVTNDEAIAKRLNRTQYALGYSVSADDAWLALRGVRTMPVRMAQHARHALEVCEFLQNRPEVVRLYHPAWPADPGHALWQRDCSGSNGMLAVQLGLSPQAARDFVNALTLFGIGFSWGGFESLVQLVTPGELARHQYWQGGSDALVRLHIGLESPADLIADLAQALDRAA

cystalysin [5] = settings: substrate cleavage by cystalysin; cited from earlier work

What does the source list for `NCCO/C=C/[C@H](N)C(=O)O` [AVG, L-aminoethoxyvinylglycine]?
pyridoxaldimine absorbance of the active enzyme at 419 nm (cystalysin [1]): rapid and complete loss; enzyme activity (cystalysin [2]): total loss; interaction with CBL [3]: time-dependent formation of a long-lived, slowly dissociating enzyme-inhibitor compolex

Which Km ([4]; highest affinity substrate) does the source give for `N[C@@H](CS)C(=O)O` [cysteine] here?
The Km was 0.077 mM.

And the Km ([4]; weak affinity substrate)?
Its Km is 5 mM.

And the Kcat (cystalysin [5])?
Its Kcat is 12 s⁻¹.

And the Km (cystalysin [5])?
Its Km is 3.6 mM.
